# Assay results from US20090305954A1, “HISTIDINE-CONTAINING DIASTEREOMERIC PEPTIDES AND USES THEREOF” (Yeda Research and Development Co. Ltd., priority 2005, published 2009).
# Square brackets hold non-standard residues; d marks the D form. Peptide text beside a SMILES is read from it.
# What was measured:
# [1] = tested on: DU145 human prostate cancer cell line; experiment: XTT proliferation (cytotoxicity) assay, DU145; assay type: cell-based
# Description: (§1) The CL1 human prostate carcinoma (PC) cell line is an androgen-independent (AI) subclone of LNCaP cell line, which was generated by culturing androgen-dependent (AD) LNCaP cells in charcoal-stripped, […], as described (Patel et al. 2000). 22RV1 human PC cells are AI sub-clones of the AD prostatic adenocarcinoma CWR22 xenograft (Sramkoski et al. 1999). CL1 and 22RV1 (ATCC, USA) were grown in RPMI-1640 supplemented with 10% FCS (Biological Industries, Beit Haemek, Israel). PC3 and DU145 are androgen-insensitive (AI) (non-responsive), invasive human prostate cancer cell lines. NIH-3T3 mouse fibroblast cell lines (ATCC, USA) were grown in DMEM supplemented with 10% BS. Murine Lewis lung carcinoma (LLC) cell lines were also grown in DMEM medium supplemented with 10% fetal calf serum and antibiotics under the same conditions as above.
# The anticancer activity of the diastereomers 1, 5 and 11-16, 36-39, 42 and 44 was examined against human CL1 prostate cancer, murine LLC (Lewis lung carcinoma), DU 145 and PC3 cell lines. The cell selectivity of the diastereomeric peptides was also studied by examining their effect on NIH-3T3 normal mouse fibroblasts cell line.
# (§2) A 96-well plate (Falcon) was used for the XTT proliferation assay. Cancer cells were grown for 24 hours (day 1) in RPMI-1640 medium ([…] cells/100 μl for LLC, CL1, 22RVI, DU 145 and PC3, respectively) supplemented with 10% fetal calf serum and antibiotics, at 37° C., in humidified atmosphere at 5% CO2 and 95% air, resulting in growth medium pH of 7.4. NIH-3T3 fibroblast cells (1×10^4 cells/100 μl) were grown in DMEM medium supplemented with 10% bovine calf serum and antibiotics under the same conditions as described above for the cancerous cells. Wells in the last two rows served as blanks (medium only, for measuring the background color of the medium) and 100% survival controls (cells and medium only without treatment), respectively.
# (§3) In day 2, the peptides were dissolved in sterile PBS to a concentration of 200 μM (or 500 μM). The medium in the assay wells was replaced with 100 μl serum free medium. For the assays at pH 6, the medium was initially concentrated (×5 or ×10) and then diluted with double distilled water and addition of sodium carbonate. Before reaching the correct dilution, the medium was adjusted to pH 6 and then more water was added to reach the final dilution. The cells were grown in physiological pH, and the acidic pH was used only during the 24 hours incubation with the peptides. A sign for the correct acidity was a light yellow color of the medium. In line A of the plate, 160 μl of serum free medium was added, if the initial peptide concentration was 500 μM.
# (§4) Peptide solutions, 100 μl (or 40 μl) were added to each assay well in line A, such that the final concentration of the peptide was […] and the volume 200 μl. The medium in the wells was mixed with multichannel pipette 5 times and 100 μl of it were transferred to the next row of wells (line B), to give a peptide concentration of 50 μM. The double dilution of the peptides continued downstream the plate in the same manner. The plates were then incubated for 24 h.
# In day 3, XTT reaction solution was prepared by adding to 100 μl aliquots of activation solution (sodium 3′-[1-(phenyl-aminocarbonyl)-3,4-tetrazolium]-bis(4-methoxy-6-nitro) benzene sulfonic acid hydrate and N-methyl dibenzopyrazine methyl sulfate; mixed in a proportion of 50:1) (protected from light and kept in −20° C.), the substrate. 50 μl of XTT reaction solution were added to each well and the plates were incubated for 2 hours (37° C. and 5% CO2+95% air. In cases the incubation was not enough for the creation of the color, it was extended for up to 24 hours). The optical density was read at wavelength of 450 nm in an ELISA plate reader. Cell viability was determined relative to the control and final results were recorded. The results were confirmed using replications in at least three independent experiments. […]
# [2] = tested on: MDA-MB-231 breast tumor metastases in lymph nodes and lungs; experiment: Inhibition of formation of lung and lymph node metastases derived from breast cancer; assay type: in vivo, SCID/NCr mice
# Description: Monitoring of solid metastases derived for breast tumor was done by in vivo fluorescence using IVIS as described above in (iii). At the end of the treatment (day 38), the mice were killed, and the lungs and lymph nodes were removed and monitored for fluorescence of metastases derived from the breast cancer. For metastases quantification, the lungs and right lymph nodes were excised and fixed in 4% buffered formaldehyde. Paraffin-embedded 5-μm sections were stained with H&E. The percentage of metastatic cell area of total section area was calculated using the Image-Pro plus 4.1 software. The dissected lungs and lymph nodes were analyzed by histology. […] Metastasis quantification was done according to areas from three different sections of each organ (P<0.005).
# [3] = Acute toxicity test in mice (intravenous); assay type: in vivo; conditions: for mortality: mice, i.v., one dose per day for 2 days
# Description: Acute toxicity of peptides 1, 13 and 16 was examined by intravenously injecting mice (n=3), each with one dose per day for 2 days of 0.5 ml solution containing peptides 1, 13 or 16 at 3, 9, 15, 20 and 30 mg/kg of body weight.
# A week after injecting the peptides, blood samples were taken from the survived mice. […] Thus, the peptides 13 and 16 of the invention are not toxic even when administered at concentrations considerably higher than those necessary for their anticancer activity.
# 22RV1 human PC cells = experiment: XTT proliferation (cytotoxicity) assay, 22RV1; assay type: cell-based
# Description: as §1, §2, §3, §4
# In day 3, XTT reaction solution was prepared by adding to 100 μl aliquots of activation solution (sodium 3′-[1-(phenyl-aminocarbonyl)-3,4-tetrazolium]-bis(4-methoxy-6-nitro) benzene sulfonic acid hydrate and N-methyl dibenzopyrazine methyl sulfate; mixed in a proportion of 50:1) (protected from light and kept in −20° C.), the substrate. 50 μl of XTT reaction solution were added to each well and the plates were incubated for 2 hours (37° C. and 5% CO2+95% air. In cases the incubation was not enough for the creation of the color, it was extended for up to 24 hours). The optical density was read at wavelength of 450 nm in an ELISA plate reader. Cell viability was determined relative to the control and final results were recorded. The results were confirmed using replications in at least three independent experiments. The LC50 for each peptide was obtained from the curve of cell viability versus concentration of peptide and taken from the concentration at which cell viability was 50%. The data shown in Table 1 are for only one experiment, but representative of all replications.
compound,measurement,setting,value
CC(C)C[C@H](NC(=O)[C@H](CC(C)C)NC(=O)[C@@H](CCCCN)NC(=O)[C@H](CC(C)C)NC(=O)[C@H](CC(C)C)NC(=O)[C@H](Cc1c[nH]cn1)NC(=O)[C@@H](CCCCN)NC(=O)[C@@H](CC(C)C)NC(=O)[C@H](CC(C)C)NC(=O)[C@@H](CCCCN)NC(=O)[C@H](Cc1c[nH]cn1)NC(=O)[C@H](CC(C)C)NC(=O)[C@@H](CC(C)C)NC(=O)[C@H](CCCCN)NC(=O)[C@@H](N)CC(C)C)C(N)=O [Peptide 13] (H-LK[dL]LH[dK]L[dL][dK]HLL[dK]LL-NH2),Lethal Concentration (LC50),"[1]; DU145, pH 6, 24 h",18.7 µg/mL
same,Lethal Concentration (LC50),"[1]; DU145, pH 7.4, 24 h",25 µg/mL
same,lymph node metastasis fluorescence intensity,[2]; systemic administration,significant reduction
same,histology of lungs and lymph nodes: population by cancer cells,"[2]; vs control untreated mice, P<0.005",much less densely populated
same,mortality,[3]; 3 mg/kg,No mortality
same,mortality,[3]; 9 mg/kg,No mortality
same,mortality,[3]; 15 mg/kg,no mortality
same,mortality,[3]; 20 mg/kg,no mortality
same,blood differential and biochemistry tests,"[3]; survived mice, a week after injection",in the range of normal values
same,Lethal Concentration (LC50),"22RV1 human PC cells; 22RV1, pH 6, 24 h",12.5 µg/mL
same,Lethal Concentration (LC50),"22RV1 human PC cells; 22RV1, pH 7.4, 24 h",12.5 µg/mL
